Blank lines part the entries; values can stand above or below the molecule they belong to.
Experiments:
[1] = tested on: 22Rv1-wild type (WT) cells; assay: CellTiter-Glo cell viability assay in 22Rv1 wild type cells; assay type: cell-based, human; details: 22Rv1 WT
Protocol: (§1) Cells were seeded onto 96-well plates in appropriate culture media and allowed to adhere overnight prior to treatment. The next day, a nine-point serial dilution of the compounds was prepared and added to the plates. After treatment, the cells were then incubated for an additional 5 d. On the last day of treatment, the CellTiter-Glo cell viability assay (Promega) was then executed in accordance with the manufacturer’s guidelines. The signal (luminescence) from each well was determined using an Infinite M1000 Pro plate reader (Tecan). Relative viability was determined by dividing the signal from each well by the average of the control condition in each experiment. Finally, the data were analyzed and plotted using GraphPad Prism.

22Rv1 AUR-3 cells = assay: CellTiter-Glo cell viability assay in AU-15330-resistant 22Rv1 AUR-3 cells (ABCB1 overexpression); assay type: cell-based, human; details: for IC50: 22Rv1 AUR-3
Text: (§2) The rising importance of the mSWI/SNF complex as a therapeutic target and the success ([32], [33]) of developing next-generation PROTAC degraders targeting the mSWI/SNF complex prompted us to proactively study potential resistance mechanisms that cancer cells may develop in response to this class of compounds. To achieve this, we cultured 22Rv1 cells in either DMSO or a lethal dose of AU-15330 for 1 mo, refreshing the drug twice a week, until resistant cells emerged. Upon obtaining a population of resistant cells, we unbiasedly characterized the genomic and transcriptomic alterations using whole-exome sequencing and bulk RNA sequencing (RNA-seq), respectively (Fig. 3A).
as §1

22Rv1 AUR-2 cells = assay: CellTiter-Glo cell viability assay in AU-15330-resistant 22Rv1 AUR-2 cells (SMARCA4 mutation); assay type: cell-based, human; details: dose-response (Fig. S4C)
Text: as §2
as §1, with “On the last day of treatment, the CellTiter-Glo cell viability assay (Promega) was then executed in accordance with the manufacturer’s guidelines.” left out

[2] = tested on: SMARCA4, SMARCA2 and PBRM1 in 22Rv1 AUR-2 cells; assay: Immunoblot of target degradation in 22Rv1 AUR-2 cells; assay type: cell-based, human; details: 4 h, AU-15330 1 µM, AU-24118 0.1 µM
Protocol: (§3) Lysates were prepared using radioimmunoprecipitation assay buffer (Thermo Fisher) with cOmpleteTM protease inhibitor cocktail tablets (Sigma-Aldrich) added. Total protein for each sample was determined using the DC Protein Assay (Bio-Rad) according to the manufacturer’s instructions. A standardized quantity of protein was resolved using NuPAGE Tris-Acetate Protein Gel (3 to 8%) (Thermo Fisher) or NuPAGE Bis-Tris Protein Gel (4 to 12%) (Thermo Fisher) and probed with primary antibodies as indicated. Following incubation with secondary antibodies conjugated with horseradish peroxidase, membranes were imaged on an Odyssey Fc Imager (LiCOR Biosciences).

[3] = tested on: mutant forms of SMARCA4 in HEK293 cells; assay: Immunoblot of overexpressed flag-tagged mutant SMARCA4 in HEK293 cells; assay type: cell-based, human; details: 24 h treatment
Text: GFP-SMARCA4 (Addgene, 65391) was used for the SMARCA4 mutation clone. The pLVX-TetOne-Puro-hAXL (Addgene, 124797) backbone was used as a starting point prior to undergoing a series of modifications. The endogenous target gene was removed, and a multiple cloning site (MCS) was inserted downstream of the endogenous promoter. Custom gblocks containing Flag-tagged WT SMARCA4 were synthesized (Integrated DNA Technologies, IDT) and inserted into the MCS. Subsequently, custom gblocks containing SMARCA4-N1540S, SMARCA4-I1551del, or SMARCA4-F1485S were inserted to replace the respective portion of WT SMARCA4. Finally, the TRE3G promoter was replaced with hPGK.
HEK293 cells were seeded overnight and transfected with Lipofectamine 3,000 (Thermo Fisher) according to the manufacturer’s protocol. Media were changed 8 h post transfection and incubated for 48 h prior to conducting further analyses.

[4] = tested on: VCaP castration-resistant tumor model; parameters: method as in PMID 34937944; details: VCaP CRPC model, AU-15330 60 mg/kg; not an arm of this study; cited from earlier work
[5] = tested on: SMARCA4, PBRM1 and SMARCA2 in 22Rv1-AUR-3 xenografts; assay: 22Rv1-AUR-3 xenograft pharmacodynamics study; details: 5 d; AU-15330 60 mg/kg retro-orbital; zosuquidar 10, 20 or 40 mg/kg i.p.
Protocol: as §3
For the 22Rv1-AUR-3 model, bilateral subcutaneous dorsal flank tumors were established by injecting 1 × 10^6 cells suspended in a 1:1 mixture of serum-free medium and Matrigel (BD Biosciences). Once tumors reached an average volume of 100 mm^3, mice were randomized and treated with either 60 mg/kg AU-15330 by retro-orbital vein injection 3 times every other day and with or without 10 mg/kg, 20 mg/kg, or 40 mg/kg of zosuquidar by intraperitoneal injection daily for 5 d per week. […] Animals harboring tumors approaching that size were immediately killed. All in vivo studies were approved by the U-M IACUC.

[6] = tested on: VCaP castration-resistant tumor model; assay: CRPC-VCaP xenograft efficacy study; assay type: in vivo; details: castrated CB17 SCID mice; enzalutamide 10 mg/kg oral gavage five times weekly; AU-24118 15 mg/kg oral gavage three times weekly
Protocol: Six-week-old CB17 (male) SCID mice were obtained from the breeding colony at the U-M. For all studies, tumors were measured two or three times per week using digital calipers, and tumor volumes were calculated using the formula (π/6) (L × W2), where L is length and W is width of the tumor. At study endpoint, mice were killed, and tumors were extracted and weighed. […] Once tumors grew to a palpable size (~400 mm^3), the mice were physically castrated. Once those tumors regained their precastration size, mice were then randomized and treated with either 15 mg/kg AU-24118 or vehicle by oral gavage 3 d per week with or without enzalutamide (10 mg/kg) by oral gavage 5 d per week for 4 wk.
IHC was performed on 4 µm formalin-fixed, paraffin-embedded tissue sections using BRG1 (SMARCA4), AR, FOXA1, ERG and C-Myc. The IHC process was performed on the Ventana ULTRA automated slide staining system using the Omnimap and Ultraview Universal DAB detection kit. The antibody details are provided in SI Appendix, Table S1. The following commercial kits from Roche-Ventana Medical System were used: Discovery CC1 (Cat No. 950-500), Discovery CC2 (Cat No. 950-123), OptiView Universal DAB Detection Kit (Cat No. 760-700), and OmniMap Universal DAB Detection Kit (Cat No. 760-149).
The TUNEL and In Situ Cell Death Detection Kits (TMR Red #12156792910; Roche Applied Science) were used to examine apoptosis, following the manufacturer’s instructions. Briefly, fixed sections were permeabilized with Triton X-100 and then washed in phosphate-buffered saline. Labeling was carried out at 37 °C for 60 min by addition of a reaction buffer that contained enzymes. A Zeiss Axiolmager M1 microscope was used to obtain images.

[7] = Fig. 4G/H, 5 d, without zosuquidar
[8] = Homo sapiens, 22Rv1, 120 h, Fig. 4G/H, 5 d, without zosuquidar
[9] = Homo sapiens, 22Rv1, Fig. S6A, siABCB1
[10] = Homo sapiens, 22Rv1, Fig. S6A, siNT (negative control)

IC50 [1, 7]: 800 nM
IC50 (22Rv1 AUR-3 cells; [7]): > 30000 nM
Structure (SMILES): Cc1cc([C@H](C(=O)N2C[C@H](O)C[C@H]2C(=O)N[C@@H](CC(=O)N2CCC(N3CCC(C#Cc4ccc(C(=O)NC5C(C)(C)C(Oc6ccc(C#N)c(Cl)c6)C5(C)C)cc4)CC3)CC2)c2ccc(-c3scnc3C)cc2)C(C)C)on1 (stereo partly drawn) [ARD-61, reference compound]
sensitivity of AUR-3 cells versus WT (22Rv1 AUR-3 cells; 22Rv1 AUR-3 cells (Fig. S5 E and F)): dramatically less sensitive

IC50 [1, 8]: 2.3 nM
IC50 ([1]; Homo sapiens, 22Rv1, Fig. S5F): 40.7 nM
IC50 [1, 9]: 48.9 nM
IC50 [1, 10]: 45.5 nM
IC50 (22Rv1 AUR-3 cells; [8]): 28500 nM
IC50 (22Rv1 AUR-3 cells; Homo sapiens, 22Rv1, Fig. S5F): 20500 nM
IC50 (22Rv1 AUR-3 cells; [9]): 990 nM
IC50 (22Rv1 AUR-3 cells; [10]): > 30000 nM
Structure (SMILES): Cc1ncsc1-c1ccc([C@H](C)NC(=O)[C@@H]2C[C@@H](O)CN2C(=O)[C@@H](NC(=O)CN2CCN(c3cc(-c4ccccc4O)nnc3N)CC2)C(C)(C)C)cc1 [AU-15330]
ability to cause a decrease in cell viability (22Rv1 AUR-2 cells): unable
degradation of SMARCA2 and PBRM1, immunoblot [2]: able to degrade SMARCA2 and PBRM1
degradation of SMARCA4, immunoblot [2]: unable to degrade SMARCA4
degradation of overexpressed mutant SMARCA4, immunoblot [3]: resistant to degradation
tumor response as a single agent [4]: more modest effects as a single agent
degradation of target proteins in tumors, immunoblot [5]: unable to degrade any of its target proteins alone

Structure (SMILES): CNC(=O)c1ccc(N2C(=S)N(c3ccc(C#N)c(C(F)(F)F)c3)C(=O)C2(C)C)cc1F [Enzalutamide, enzalutamide, reference compound]
tumor response [6]: moderate tumor growth inhibition

— paper PMC11009648, “Development of an orally bioavailable mSWI/SNF ATPase degrader and acquired mechanisms of resistance in prostate cancer” (Proceedings of the National Academy of Sciences of the …, 2024)
